Results reported in PMC6271697, “Anticancer Activities of Polyynes from the Root Bark of Oplopanax horridus and Their Acetylated Derivatives” (Molecules, 2014).

Columns and labels:
Type in all cases: cell-based, human
[1] = system: MDA-MB-231 cells; assay: Hoechst 33342 staining for apoptosis; details: OHR-1 15 μM, OHR-2 5 μM, OHR-3 10 μM, OHR-5 15 μM; 12 h
Protocol: MDA-MB-231 cells were seeded in the flat-bottomed 6-well plates and treated with OHR-1, -2, -3 and -5. Cells treated with solvent vehicle served as controls. In 12 h after treatment, cells were fixed in 4% polyoxymethylene solution for 30 min and then washed with PBS. The fixed cells were incubated with Hoechst 33342 for 15 min at room temperature in the dark and then washed with PBS twice, which were finally observed under a fluorescence microscope (Convert Fluorescence Microsope Axiovert 200, HAL 100, HBO 100, Carl Zeiss MicroImaging Co., Ltd., Oberkochen, Germany) at a magnification of ×400.

[2] = system: A549 cells; assay: MTT cell viability assay, A549 cells; details: MTT, 24 h incubation; read-out: IC50 A549
Protocol: (§1) The human breast cancer cell lines MCF-7, MDA-MB-231, human hepatocellular liver cell line HepG2 and human lung carcinoma epithelial cells A549 were purchased from American Type Culture Collection (ATCC, Manassas, VA, USA). Normal human hepatic LO2 cells were obtained from the Institute of Cell Biology, Academic Sinica (Shanghai, China). The cells were grown in an atmosphere of 5% CO2 at 37 °C in RPMI 1640 medium supplemented with 10% fetal bovine serum, 100 U/mL penicillin and […] streptomycin.
(§2) The viability of cells was measured by a colorimetric MTT assay. Briefly, 1 × 10^4 cells/well in 96-well microplates were exposed to different concentration of polyynes and their acetylated derivatives respectively for 24 h incubation, following addition of 20 μL MTT solution (4 mg/mL) to each well for another 4 h incubation at 37 °C. Finally, the medium was removed and replaced with 100 μL dimethyl sulfoxide which was added to dissolve the dye crystal presented in cells. The absorbance was recorded at 570 nm using a microplate reader (1420 Multilabel counter victor^3, Perkin-Elmer, Waltham, MA, USA). The results were expressed as ratio of absorbance between treatments and control cells (solvent vehicle set at 100%). Four replicate wells were tested per assay which was repeated three times.

[3] = system: MDA-MB-231 cells; assay: Cell cycle analysis by PI staining and flow cytometry; details: 24 h
Protocol: Cells were seeded in 6-well tissue culture plates and treated with DMSO control or different concentration of OHR-1, -2, -3 and -5 for 24 h. Then, the cells were harvested and fixed gently with cold 70% ethanol at −20 °C overnight. Finally, the cells were washed with PBS and re-suspended in 300 μL of propidium iodide (PI) stain solution (20 μg/mL PI and 8 μg/mL DNase-free RNase) for 20 min at room temperature in the dark. The cells were analyzed with a flow cytometry and Mod Fit LT 3.0 software (Variety Software House, Topsham, ME, USA). For each measurement, at least 20,000 cells were counted.

[4] = system: MDA-MB-231 cells; assay: JC-1 mitochondrial membrane potential; details: high concentration (OHR-1 15 μM, OHR-2 5 μM, OHR-3 10 μM, OHR-5 15 μM), 24 h
Protocol: The MDA-MB-231 cells were treated with OHR-1, -2, -3 and -5 for 24 h in a humidified atmosphere (37 °C with 5% CO2). The cells were collected and responded in 0.5 mL culture medium with JC-1 dye (1 μg/mL) for 20 min at 37 °C in dark. Fluorescence was monitored by both flow cytometry (BD Biosciences, San Jose, CA, USA) and fluorescence microscope. The Δψm were indicated by the rato of […] fluorescence intensity. The data were expressed as ratio of Δψm between treatments and control cells (solvent vehicle set at 100%).

[5] = system: HepG2 cells; assay: MTT cell viability assay, HepG2 cells; details: MTT, 24 h incubation; read-out: IC50 HepG2
Protocol: as §1, §2

[6] = system: LO2 cells; assay: MTT cell viability assay, normal hepatic LO2 cells; details: normal human hepatic cells, MTT, 24 h incubation; read-out: IC50 LO2
Protocol: as §1, §2

[7] = system: MDA-MB-231 cells; assay: MTT cell viability assay, MDA-MB-231 cells; details: MTT, 24 h incubation; read-out: IC50 MDA-MB-231
Protocol: as §1, §2

[8] = system: MCF-7 cells; assay: MTT cell viability assay, MCF-7 cells; details: MTT, 24 h incubation; read-out: IC50 MCF-7
Protocol: as §1, §2

(3S,8S,Z)-3-Hydroxyheptadeca-1,9-dien-4,6-diyn-8-yl acetate [OHR-5]
induction of apoptosis (Hoechst staining) [1]: induce obvious apoptosis
IC50 [2]: 30.1 ± 4.4 µM
G2/M arrest rate at low concentration ([3]; OHR-1 7.5 μM, OHR-2 2.5 μM, OHR-3 5 μM, OHR-5 7.5 μM): 33.2% ± 4.6%
G2/M arrest rate at high concentration ([3]; OHR-1 15 μM, OHR-2 5 μM, OHR-3 10 μM, OHR-5 15 μM): 38.0% ± 1.7%
effect on mitochondrial membrane potential Δψm (JC-1) [4]: decreasing the Δψm
IC50 [5]: 43.7 ± 6.6 µM
IC50 [6]: 31.1 ± 1.8 µM
IC50 [7]: 13.9 ± 5.8 µM
IC50 [8]: 30.6 ± 3.1 µM
